# Source: patent US10597390B2, “Indoles for use in influenza virus infection” (Janssen Sciences Ireland UC, priority 2014, dated 2020)
# Legend:
# [1] = system: influenza virus A/Taiwan/1/86 (H1N1); assay: organism not typed; assay type: cell-based; details: MDCK, 72 h, CPE in MDCK cells, three days post-virus exposure, ATPlite
# in vitro = details: dog, TOX MDCK CC50
Compound,IC50 [1],melting point,CC50 at 3 days (in vitro)
Cn1nnc(C(=O)N[C@@H]2CCC[C@H](Nc3nc(-c4c[nH]c5c(F)cc(Cl)cc45)ncc3F)C2)n1 [Compound 74],19 nM,259.7 °C,> 25000 nM
Cn1ncnc1C(=O)N[C@@H]1CCC[C@H](Nc2nc(-c3c[nH]c4c(F)cc(Cl)cc34)ncc2F)C1 [Compound 75],12 nM,> 300 °C,> 25000 nM
Nc1nc(C(=O)N[C@@H]2CCC[C@H](Nc3nc(-c4c[nH]c5c(F)cc(Cl)cc45)ncc3F)C2)cs1 [Compound 76],0.6 nM,184.8 °C,2500 nM
Nc1n[nH]cc1C(=O)N[C@@H]1CCC[C@H](Nc2nc(-c3c[nH]c4c(F)cc(Cl)cc34)ncc2F)C1 [Compound 77],3 nM,133 °C,9900 nM
Cn1ncc(N)c1C(=O)N[C@@H]1CCC[C@H](Nc2nc(-c3c[nH]c4c(F)cc(Cl)cc34)ncc2F)C1 [Compound 79],38 nM,166.4 °C,> 25000 nM
Cn1nc(C(=O)N[C@@H]2CCC[C@H](Nc3nc(-c4c[nH]c5c(F)cc(Cl)cc45)ncc3F)C2)cc1N [Compound 80],4 nM,174.8 °C,3900 nM
O=C(N[C@@H]1CCC[C@H](Nc2nc(-c3c[nH]c4c(F)cc(Cl)cc34)ncc2F)C1)c1nnn[nH]1 [Compound 81],39 nM,275.1 °C,> 25000 nM
Cn1ccnc1C(=O)N[C@H]1CCC[C@@H](Nc2nc(-c3c[nH]c4c(F)cc(F)cc34)ncc2F)C1 [Compound 83],2 nM,166.6 °C,9600 nM
O=C(N[C@H]1CCC[C@@H](Nc2nc(-c3c[nH]c4c(F)cc(F)cc34)ncc2F)C1)c1cncs1 [Compound 84],3 nM,295.2 °C,> 25000 nM
COc1cccc(C(=O)N[C@@H]2CCC[C@H](Nc3nc(-c4c[nH]c5c(F)cc(F)cc45)ncc3F)C2)n1 [Compound 98],43 nM,240 °C,14700 nM
O=C(N[C@@H]1CCC[C@H](Nc2nc(-c3c[nH]c4c(F)cc(F)cc34)ncc2F)C1)c1cc(Cl)ccn1 [Compound 99],12 nM,86 °C,10200 nM
O=C(N[C@@H]1CCC[C@H](Nc2nc(-c3c[nH]c4c(F)cc(F)cc34)ncc2F)C1)c1ccc2ncccc2n1 [Compound 100],54 nM,84.6 °C,12400 nM
Cc1cccnc1C(=O)N[C@@H]1CCC[C@H](Nc2nc(-c3c[nH]c4c(F)cc(F)cc34)ncc2F)C1 [Compound 101],10 nM,236 °C,> 20700 nM
O=C(N[C@@H]1CCC[C@H](Nc2nc(-c3c[nH]c4c(F)cc(F)cc34)ncc2F)C1)c1ncccc1O [Compound 102],10 nM,176 °C,10100 nM
Cc1cnc(C(=O)N[C@@H]2CCC[C@H](Nc3nc(-c4c[nH]c5c(F)cc(F)cc45)ncc3F)C2)cn1 [Compound 103],49 nM,215 °C,6600 nM
O=C(N[C@@H]1CCC[C@H](Nc2nc(-c3c[nH]c4c(F)cc(F)cc34)ncc2F)C1)c1cccc(O)n1 [Compound 104],2 nM,226.6 °C,> 25000 nM
COc1ccnc(C(=O)N[C@@H]2CCC[C@H](Nc3nc(-c4c[nH]c5c(F)cc(F)cc45)ncc3F)C2)c1 [Compound 105],2 nM,233.8 °C,5600 nM
Nc1cccc(C(=O)N[C@@H]2CCC[C@H](Nc3nc(-c4c[nH]c5c(F)cc(F)cc45)ncc3F)C2)n1 [Compound 106],5 nM,190 °C,10300 nM
O=C(N[C@@H]1CCC[C@H](Nc2nc(-c3c[nH]c4c(F)cc(F)cc34)ncc2F)C1)c1cnccn1 [Compound 107],45 nM,269 °C,> 25000 nM
